Read-outs that look alike come from different tables or passages of the source.
Assays:
HCV NS5B = target: T1, HCV NS5B (Hepatitis C virus genotype 1b, UniProt Q9WMX2); test: Modified HCV NS5B RdRp enzyme assay (preincubation protocol); type: biochemical
T1 construct: The protein was expressed with an 18 amino acid C-terminal truncation to enhance the solubility; made in house; host or cells: E. coli BL21(DE3)
Description: HCV NS5B RdRp cloning, expression, and purification. The cDNA encoding the NS5B protein of HCV, genotype 1b, was cloned into the pET21a expression vector. The protein was expressed with an 18 amino acid C-terminal truncation to enhance the solubility. The E. coli competent cell line BL21(DE3) was used for expression of the protein. Cultures were grown at 37° C. for ˜4 hours until the cultures reached an optical density of 2.0 at 600 nm. The cultures were cooled to 20° C. and induced with 1 mM IPTG. Fresh ampicillin was added to a final concentration of 50 μg/ml and the cells were grown overnight at 20° C.
Cell pellets (3 L) were lysed for purification to yield 15-24 mgs of purified NS5B. The lysis buffer consisted of 20 mM Tris-HCl, pH 7.4, 500 mM NaCl, 0.5% triton X-100, 1 mM DTT, 1 mM EDTA, 20% glycerol, 0.5 mg/ml lysozyme, 10 mM MgCl2, 15 ug/ml deoxyribonuclease I, and Complete TM protease inhibitor tablets (Roche). After addition of the lysis buffer, frozen cell pellets were resuspended using a tissue homogenizer. To reduce the viscosity of the sample, aliquots of the lysate were sonicated on ice using a microtip attached to a Branson sonicator. The sonicated lysate was centrifuged at 100,000×g for 1 hr at 4° C. and filtered through a 0.2 μm filter unit (Corning).
The protein was purified using two sequential chromatography steps: Heparin sepharose CL-6B and polyU sepharose 4B (Pharmacia). The chromatography buffers were identical to the lysis buffer but contained no lysozyme, deoxyribonuclease I, MgCl2 or protease inhibitor and the NaCl concentration of the buffer was adjusted according to the requirements for charging the protein onto the column. Each column was eluted with a NaCl gradient which varied in length from 5-50 column volumes depending on the column type. After the final chromatography step, the resulting purity of the enzyme is >90% based on SDS-PAGE analysis. The enzyme was aliquoted and stored at −80° C.
Standard HCV NS5B RdRp enzyme assay. HCV RdRp genotype 1b assays were run in a final volume of 60 μl in 96 well plates (Corning 3600). The assay buffer is composed of 20 mM Hepes, pH 7.5, 2.5 mM KCl, 2.5 mM MgCl2, 1 mM DTT, 1.6 U RNAse inhibitor (Promega N2515), 0.01 mg/ml BSA (Sigma B6917), and 2% glycerol. All compounds were serially diluted (3-fold) in DMSO and diluted further in water such that the final concentration of DMSO in the assay was 2%. HCV RdRp genotype 1b enzyme was used at a final concentration of 28 nM. A polyA template was used at 6 nM, and a biotinylated oligo-dT12 primer was used at 180 nM final concentration. Template was obtained commercially (Amersham 27-4110). Biotinylated primer was prepared by Sigma Genosys. 3H-UTP was used at 0.6 μCi (0.29 μM total UTP). Reactions were initiated by the addition of enzyme, incubated at 30° C. for 60 min, and stopped by adding 25 μl of 50 mM EDTA containing SPA beads (4 μg/μl, Amersham RPNQ 0007). Plates were read on a Packard Top Count NXT after >1 hr incubation at room temperature.
Modified HCV NS5B RdRp enzyme assay. A modified enzyme assay was performed essentially as described for the standard enzyme assay except for the following: The biotinylated oligo dT12 primer was precaptured on streptavidin-coated SPA beads by mixing primer and beads in assay buffer and incubating at room temperature for one hour. Unbound primer was removed after centrifugation. The primer-bound beads were resuspended in 20 mM Hepes buffer, pH 7.5 and used in the assay at final concentrations of 20 nM primer and 0.67 μg/μl beads. Order of addition in the assay: enzyme (1.75 nM) was added to diluted compound followed by the addition of a mixture of template (0.36 nM), 3H-UTP (0.6 μCi, 0.29 μM), and primer-bound beads, to initiate the reaction; concentrations given are final. Reactions were allowed to proceed for 4 hours at 30° C.
IC50 values for compounds were determined using seven different [I]. […]

HCV replicon cells = test: HCV replicon FRET assay; type: cell-based
Description: FRET Assay Preparation. The HCV FRET screening assay was performed in 96-well cell culture plates. The FRET peptide (Anaspec, Inc.) (Taliani et al., Anal. Biochem. 1996, 240, 60-67) contains a fluorescence donor, EDANS, near one end of the peptide and an acceptor, DABCYL, near the other end. The fluorescence of the peptide is quenched by […] resonance energy transfer (RET) between the donor and the acceptor, but as the NS3 protease cleaves the peptide the products are released from RET quenching and the fluorescence of the donor becomes apparent. The assay reagent was made as follows: 5× cell Luciferase cell culture lysis reagent from Promega (#E153A) diluted to 1× with dH2O, NaCl added to 150 mM final, the FRET peptide diluted to 20 μM final from a 2 mM stock.
To prepare plates, HCV replicon cells, with or without a Renilla luciferase reporter gene, were trypsinized and plated in a 96-well plate with titrated test compounds added in columns 3 through 12; columns 1 and 2 contained a control compound (HCV control inhibitor), and the bottom row contained cells with DMSO only. The plates were then placed in a CO2 incubator at 37° C.
Assays. Subsequent to addition of the test compounds described above (FRET Assay Preparation), at various times the plate was removed and Alamar blue solution (Trek Diagnostics, #00-100) was added to measure cellular toxicity. After reading in a Cytoflour 4000 instrument (PE Biosystems), plates were rinsed with PBS and then used for FRET assay by the addition of 30 ul of the FRET peptide assay reagent described above (FRET Assay Preparation) per well. The plate was then placed into the Cytoflour 4000 instrument which had been set to 340 excite/490 emission, automatic mode for up to 20 cycles and the plate read in a kinetic mode. Typically, the signal to noise using an endpoint analysis after the reads was at least three-fold. Alternatively, after Alamar blue reading, plates were rinsed with PBS, then used for luciferase assay using the Promega Dual-Glo Luciferase Assay System or the Promega EnduRen Live Cell Substrate assay.
Compound analysis was performed by quantification of the relative HCV replicon inhibition and the relative cytotoxicity values. To calculate cytoxicity values, the average Alamar Blue fluorescence signals from the control wells were set as 100% non-toxic. The individual signals in each of the compound test wells were then divided by the average control signal and multiplied by 100% to determine […]. To calculate the HCV replicon inhibition values, an average background value was obtained from the two wells containing the highest amount of HCV control inhibitor at the end of the assay period. These numbers were similar to those obtained from naïve Huh-7 cells. The background numbers were then subtracted from the average signal obtained from the control wells and this number was used as 100% activity. The individual signals in each of the compound test wells were then divided by the averaged control values after background subtraction and multiplied by 100% to determine percent activity. EC50 values were calculated as the concentration which caused a 50% reduction in FRET or luciferase activity. The two numbers generated for the compound plate, percent cytoxicity and percent activity, were used to determine compounds of interest for further analysis.

T1 sequence (Q9WMX2 2420-2992): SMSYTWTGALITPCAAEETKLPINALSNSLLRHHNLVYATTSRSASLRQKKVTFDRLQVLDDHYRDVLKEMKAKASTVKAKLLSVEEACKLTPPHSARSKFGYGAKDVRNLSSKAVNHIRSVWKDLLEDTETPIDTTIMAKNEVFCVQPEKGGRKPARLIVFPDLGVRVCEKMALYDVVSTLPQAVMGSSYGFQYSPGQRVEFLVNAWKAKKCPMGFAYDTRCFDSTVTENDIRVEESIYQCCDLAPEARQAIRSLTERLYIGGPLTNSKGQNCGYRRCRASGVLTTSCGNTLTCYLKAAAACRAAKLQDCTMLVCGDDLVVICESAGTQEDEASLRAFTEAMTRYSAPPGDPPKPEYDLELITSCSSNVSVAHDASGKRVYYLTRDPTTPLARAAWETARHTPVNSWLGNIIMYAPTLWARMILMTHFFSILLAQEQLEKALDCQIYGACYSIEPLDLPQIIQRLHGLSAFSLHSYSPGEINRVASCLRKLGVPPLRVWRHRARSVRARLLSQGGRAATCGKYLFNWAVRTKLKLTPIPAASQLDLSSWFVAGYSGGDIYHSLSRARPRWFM

Compound	IC50 (HCV NS5B)	EC50 (HCV replicon cells; Hepatitis C virus)	EC50 (HCV replicon cells)
COc1ccc2c(c1)C1CC1(C(=O)N1CCC3(CCN(C(=O)OC(C)(C)C)C3)C1)Cn1c-2c(C2CCCCC2)c2ccc(C(=O)NS(=O)(=O)C(C)C)cc21 (stereo not drawn)	4.58 to 500 nM	4.58 to 500 nM	
COc1ccc2c(c1)C1CC1(C(=O)N1CCC3(CCNC3)C1)Cn1c-2c(C2CCCCC2)c2ccc(C(=O)NS(=O)(=O)C(C)C)cc21 (stereo not drawn)	4.58 to 500 nM	4.58 to 500 nM	
COc1ccc2c(c1)C1CC1(C(=O)N1CCCC3(CCN(C)C3=O)C1)Cn1c-2c(C2CCCCC2)c2ccc(C(=O)NS(=O)(=O)C3CC3)cc21 (stereo not drawn)	4.58 to 500 nM	4.58 to 500 nM	
COc1ccc2c(c1)C1CC1(C(=O)N1CCC3(CCCN3C(=O)OC(C)(C)C)CC1)Cn1c-2c(C2CCCCC2)c2ccc(C(=O)NS(=O)(=O)C(C)C)cc21 (stereo not drawn)	4.58 to 500 nM	4.58 to 500 nM	
CCCS(=O)(=O)NC(=O)c1ccc2c(C3CCCCC3)c3n(c2c1)CC1(C(=O)N2CCC4(CCCN4C(=O)OC(C)(C)C)CC2)CC1c1cc(OC)ccc1-3 (stereo not drawn)	4.58 to 500 nM	4.58 to 500 nM	
COc1ccc2c(c1)C1CC1(C(=O)N1CCC3(CCCN3)CC1)Cn1c-2c(C2CCCCC2)c2ccc(C(=O)NS(=O)(=O)C(C)C)cc21 (stereo not drawn)	4.58 to 500 nM	4.58 to 500 nM	
CCCS(=O)(=O)NC(=O)c1ccc2c(C3CCCCC3)c3n(c2c1)CC1(C(=O)N2CCC4(CCCN4)CC2)CC1c1cc(OC)ccc1-3 (stereo not drawn)	4.58 to 500 nM	4.58 to 500 nM	
COc1ccc2c(c1)C1CC1(C(=O)N1CCC3(CCCN3C)CC1)Cn1c-2c(C2CCCCC2)c2ccc(C(=O)NS(=O)(=O)C(C)C)cc21 (stereo not drawn)	4.58 to 500 nM	4.58 to 500 nM	
CCCS(=O)(=O)NC(=O)c1ccc2c(C3CCCCC3)c3n(c2c1)CC1(C(=O)N2CCC4(CCCN4C)CC2)CC1c1cc(OC)ccc1-3 (stereo not drawn)	4.58 to 500 nM	4.58 to 500 nM	
COc1ccc2c(c1)C=C(C(=O)N1CCCC13CCN(C)CC3)Cn1c-2c(C2CCCCC2)c2ccc(C(=O)NS(=O)(=O)C(C)C)cc21	4.58 to 500 nM	4.58 to 500 nM	
COc1ccc2c(c1)C1CC1(C(=O)N1CCCC13CCN(C)CC3)Cn1c-2c(C2CCCCC2)c2ccc(C(=O)NS(=O)(=O)C(C)C)cc21 (stereo not drawn)	4.58 to 500 nM	4.58 to 500 nM	
CCCS(=O)(=O)NC(=O)c1ccc2c(C3CCCCC3)c3n(c2c1)CC1(C(=O)N2CCCC24CCN(C)CC4)CC1c1cc(OC)ccc1-3 (stereo not drawn)	4.58 to 500 nM	4.58 to 500 nM	
COc1ccc2c(c1)C1CC1(C(=O)N1CCC3(CCCN3C(C)=O)CC1)Cn1c-2c(C2CCCCC2)c2ccc(C(=O)NS(=O)(=O)C(C)C)cc21 (stereo not drawn)	4.58 to 500 nM	4.58 to 500 nM	
CCCS(=O)(=O)NC(=O)c1ccc2c(C3CCCCC3)c3n(c2c1)CC1(C(=O)N2CCC4(CCCN4C(C)=O)CC2)CC1c1cc(OC)ccc1-3 (stereo not drawn)	4.58 to 500 nM	4.58 to 500 nM	
COc1ccc2c(c1)C1CC1(C(=O)N1CCNC3(CCCC3)C1)Cn1c-2c(C2CCCCC2)c2ccc(C(=O)NS(=O)(=O)C(C)C)cc21 (stereo not drawn)	4.58 to 500 nM	4.58 to 500 nM	
COc1ccc2c(c1)C1CC1(C(=O)N1CCNC3(CCCCC3)C1)Cn1c-2c(C2CCCCC2)c2ccc(C(=O)NS(=O)(=O)C(C)C)cc21 (stereo not drawn)	4.58 to 500 nM	4.58 to 500 nM	
CCCS(=O)(=O)NC(=O)c1ccc2c(C3CCCCC3)c3n(c2c1)CC1(C(=O)N2CCNC4(CCCC4)C2)CC1c1cc(OC)ccc1-3 (stereo not drawn)	4.58 to 500 nM	4.58 to 500 nM	
CCCS(=O)(=O)NC(=O)c1ccc2c(C3CCCCC3)c3n(c2c1)CC1(C(=O)N2CCNC4(CCCCC4)C2)CC1c1cc(OC)ccc1-3 (stereo not drawn)	4.58 to 500 nM	4.58 to 500 nM	
COc1ccc2c(c1)C1CC1(C(=O)N1CCN(C)C3(CCCC3)C1)Cn1c-2c(C2CCCCC2)c2ccc(C(=O)NS(=O)(=O)C(C)C)cc21 (stereo not drawn)	4.58 to 500 nM	4.58 to 500 nM	
COc1ccc2c(c1)C1CC1(C(=O)N1CCN(C)C3(CCCCC3)C1)Cn1c-2c(C2CCCCC2)c2ccc(C(=O)NS(=O)(=O)C(C)C)cc21 (stereo not drawn)	4.58 to 500 nM	4.58 to 500 nM	
CCCS(=O)(=O)NC(=O)c1ccc2c(C3CCCCC3)c3n(c2c1)CC1(C(=O)N2CCN(C)C4(CCCC4)C2)CC1c1cc(OC)ccc1-3 (stereo not drawn)	4.58 to 500 nM	4.58 to 500 nM	
COc1ccc2c(c1)C1CC1(C(=O)N1CCCC3(CCN(C)C3=O)C1)Cn1c-2c(C2CCCCC2)c2ccc(C(=O)NS(=O)(=O)C(C)C)cc21 (stereo not drawn) [drawing 21]	4.58 to 500 nM	4.58 to 500 nM	
COc1ccc2c(c1)C1CC1(C(=O)N1CCCC3(CCN(C)C3=O)C1)Cn1c-2c(C2CCCCC2)c2ccc(C(=O)NS(=O)(=O)C(C)C)cc21 (stereo not drawn) [drawing 22]	4.58 to 500 nM		4.58 to 500 nM
COc1ccc2c(c1)C1CC1(C(=O)N1CCCC3(CCN(C)C3)C1)Cn1c-2c(C2CCCCC2)c2ccc(C(=O)NS(=O)(=O)C(C)C)cc21 (stereo not drawn) [drawing 23]	4.58 to 500 nM	4.58 to 500 nM	
